{"source": "patent US20210330645A1", "about": "“ANTIBACTERIAL COMBINATIONS” (priority 2018, published 2021)", "key": {"Klebsiella pneumoniae": {"test_system": "Klebsiella pneumoniae", "experiment": "Checkerboard growth inhibition assay, Klebsiella pneumoniae", "type": "cell-based", "settings": "CM4 did not inhibit growth in the range used", "experimental": "(§1) Each combination was performed in triplicate.\n(§2) The interaction between two drugs was interpreted as synergistic if FICi was ≤0.5, indifferent if it was >0.5 and ≤4, and antagonistic if it was >4.\nTriple synergy is based on the pairwise synergies of the three antibacterials, FZ (a nitrofuran), DOC and Van. To start understanding the triple interaction, a series of experiments analysing pairwise combinations were carried out. […] In contrast, Klebsiella is susceptible to synergistic action of FZ (but not NF and NFZ) with DOC and is resistant to nitrofuran CM4."}, "E. coli [1]": {"test_system": "E. coli", "experiment": "Growth inhibition of E. coli by vancomycin (strain not specified)"}, "Escherichia coli O157": {"test_system": "Escherichia coli O157", "experiment": "Checkerboard growth inhibition assay, E. coli O157", "type": "cell-based", "settings": "for FIC of the single component within the triple combination: Van+FZ+DOC at the lowest FICi point", "experimental": "as §1, §2\n(§3) A growth inhibition assay was used where a series of concentrations of each antibacterial was applied combined with several concentrations of other two antibacterials (7 concentrations of Van, 8 of FZ and 9 of DOC). […] Starting from the highest concentrations, two-fold dilution series were assayed. E. coli cultures were seeded with ˜10^6 cells/mL and incubated overnight. Optical densities of each combination of concentrations were measured to assess growth and the inhibition relative to the no-antibiotic control were calculated. […] The synergistic interaction has been defined by the Fractional Inhibitory Concentration index (FICi); see the Definitions and Material and Methods sections. FICi represents the sum of the individual Fractional Inhibitory Concentrations (FIC). An FIC in turn is equal to the ratio of concentration that inhibits growth (>90%) in combination vs. alone. For pairwise combinations, the FICi below 0.5 (below 0.25 for each antibiotic) is considered synergistic; by extension for triple combination the FICi should be <0.75 (again below 0.25 for each antibiotic)."}, "[2]": {"test_system": "various Gram-negative bacteria", "experiment": "Inhibition of various Gram-negative bacteria by vancomycin alone and in combination", "type": "cell-based", "experimental": "as §1"}, "E. coli [3]": {"test_system": "E. coli", "settings": "cited from earlier work"}, "[4]": {"settings": "cited from earlier work"}, "E. coli K12": {"test_system": "E. coli K12", "experiment": "Checkerboard / dose-response growth inhibition assay, E. coli K12", "type": "cell-based, Escherichia coli", "settings": "for FIC of the single component within the triple combination: Van+FZ+DOC at the lowest FICi point; for growth inhibition at the concentrations of the time-kill assay: FZ 1.25 μg/ml, alone or in combination", "experimental": "E. coli was grown in 2×YT medium (BD Difco) at 37° C. with shaking at 200 rpm. For preparation of exponential phase cells, fresh overnight culture was 100-fold diluted and incubated to reach the OD600nm of about 0.1-0.2. This cell suspension was then diluted to the desirable concentration depending on specific purposes.\nas §1, §2, §3"}, "[5]": {"settings": "with FZ and DOC, at the lowest FICi point"}}, "note": "“And” between values parts separate entries of the source, which are not always exact repeats. Identical values can stand only once."}
{"smiles": "O=C(NN=Cc1ccc([N+](=O)[O-])o1)c1ccco1", "note": "[CM4, N′-[(5-nitrofuran-2-yl)methylidene]furan-2-carbohydrazide]", "values": [{"measurement": "concentration range in which growth was not inhibited (up to)", "setting": "Klebsiella pneumoniae", "result": "> 256", "unit": "µg/mL"}]}
{"smiles": "CN[C@H](CC(C)C)C(=O)N[C@H]1C(=O)N[C@@H](CC(N)=O)C(=O)N[C@H]2C(=O)N[C@H]3C(=O)N[C@H](C(=O)N[C@H](C(=O)O)c4cc(O)cc(O)c4-c4cc3ccc4O)[C@H](O)c3ccc(c(Cl)c3)Oc3cc2cc(c3O[C@@H]2O[C@H](CO)[C@@H](O)[C@H](O)[C@H]2O[C@H]2C[C@](C)(N)[C@H](O)[C@H](C)O2)Oc2ccc(cc2Cl)[C@H]1O", "note": "[Van, vancomycin]", "values": [{"measurement": "concentration required for E. coli growth inhibition when used on its own", "setting": "E. coli [1]", "result": "> 250", "unit": "µg/mL"}, {"measurement": "Van concentration in triple combination at several points in the graph", "setting": "E. coli [1]; E. coli K12 and O157, with FZ and DOC", "result": "16 µg/mL and 10 µg/mL"}, {"measurement": "concentration of Van required to inhibit, used alone", "setting": "Escherichia coli O157; 90% growth inhibition", "result": 250, "unit": "µg/mL"}, {"measurement": "FIC of the single component within the triple combination", "setting": "Escherichia coli O157", "result": 0.03125}, {"measurement": "concentration of Van required to inhibit, in triple combination", "setting": "Escherichia coli O157; [5]", "result": 16, "unit": "µg/mL"}, {"measurement": "concentration of vancomycin required to inhibit, before lowering (alone)", "setting": "[2]; some variation between strains", "result": "about 500 μg/mL"}, {"measurement": "bactericidal concentration of vancomycin in the triple combination", "setting": "[2]; with a nitrofuran and DOC", "result": 15.6, "unit": "µg/mL"}, {"measurement": "MIC when used on its own", "setting": "E. coli [3]", "result": 250, "unit": "µg/mL"}, {"measurement": "known nephrotoxic concentrations", "setting": "[4]; depending on the mode and length of treatment", "result": "30 µg/mL and 20 µg/mL"}, {"measurement": "concentration considered below nephrotoxic level (sub-toxic)", "setting": "[4]; recommended therapeutic concentration, 6-day treatment", "result": "below 20 μg/mL"}, {"measurement": "concentration of Van required to inhibit, used alone", "setting": "E. coli K12; 90% growth inhibition", "result": 500, "unit": "µg/mL"}, {"measurement": "FIC of the single component within the triple combination", "setting": "E. coli K12", "result": 0.03125}, {"measurement": "growth inhibition at the concentrations of the time-kill assay", "setting": "E. coli K12; strain BW25113, Van 125 μg/ml", "result": "sub-inhibitory"}, {"measurement": "concentration of Van required to inhibit, in triple combination", "setting": "E. coli K12; [5]", "result": 20, "unit": "µg/mL"}]}
{"smiles": "C[C@H](CCC(=O)[O-])[C@H]1CC[C@H]2[C@@H]3CC[C@@H]4C[C@H](O)CC[C@]4(C)[C@H]3C[C@H](O)[C@]12C.[Na+]", "note": "[DOC, sodium; (4R)-4-[(3R,5R,8R,9S,10S,12S,13R,14S,17R)-3,12-dihydroxy-10,13-dimethyl-2,3,4,5,6,7,8,9,11,12,14,15,16,17-tetradecahydro-1H-cyclopenta[a]phenanthren-17-yl]pentanoate]", "values": [{"measurement": "FIC of the single component within the triple combination", "setting": "Escherichia coli O157", "result": 0.03125}, {"measurement": "FIC of the single component within the triple combination", "setting": "E. coli K12", "result": 0.0625}, {"measurement": "growth inhibition at the concentrations of the time-kill assay", "setting": "E. coli K12; strain K1508, DOC 2,500 μg/ml", "result": "sub-inhibitory"}]}
{"smiles": "O=C1OCCN1/N=C/c1ccc([N+](=O)[O-])o1", "note": "[FZ, 3-[(E)-(5-nitrofuran-2-yl)methylideneamino]-1,3-oxazolidin-2-one]", "values": [{"measurement": "FIC of the single component within the triple combination", "setting": "Escherichia coli O157", "result": 0.0625}, {"measurement": "growth inhibition at the concentrations of the time-kill assay", "setting": "E. coli K12; strain BW25113, Van 125 μg/ml", "result": "sub-inhibitory"}, {"measurement": "growth inhibition at the concentrations of the time-kill assay", "setting": "E. coli K12; strain K1508, DOC 2,500 μg/ml", "result": "sub-inhibitory"}]}
